From patent US11890279B2, “Quinolines that modulate SERCA and their use for treating disease” (Neurodon Corporation, priority 2020, dated 2024)

How the values were obtained:
[1] = test system: APPSWE/PSEN1dE9 double-transgenic mice; experiment: Alzheimer's model behavioral test, Morris water maze; assay type: in vivo, mouse; conditions: 10 mg/kg IP daily for 4 weeks; vs vehicle
Experimental: Briefly, the mice were shown a visible platform that was subsequently removed. The distance that the mice swim searching for the platform was measured, with a shorter distance indicating increased memory. […] Motor coordination, strength, and balance was assessed using the Rotarod test (FIG. 6, B). Mice were first trained until they could remain on a rotarod revolving at 16 rpm for three consecutive 120 sec trials. The next day the mice were placed back on the rotarod for a single trial at 18 rpm (maximum duration 120 sec). The duration a mouse could remain on the rotarod was recorded, and the mouse was then returned to its home cage. The speed of the rotarod was then increased to 21 rpm, and all mice were given another test trial. This process was repeated for rotarod speeds of 24, 27, 30, 33, and 36 rpm. All the speeds were repeated twice for the mice in different groups, interval 30 min every time. The Mean values of two tests were analyzed. The mice maintained longer time on the rotarod with more ability of motor coordination, strength and balance.

[2] = test system: CA1 pyramidal neurons of PS1/APP mice; experiment: Ca2+ imaging in brain slices of treated PS1/APP mice; assay type: in vivo, mouse; conditions: 10 mg/kg IP, 4 weeks, caffeine 10 mM, 60 sec
Source text: Mouse Model: PS1/APP mice (PS1M146V and APPSWE) (Howlett et al., Brain Res. 2004, 1017, 130-136) were used. Age-matched NTg controls were on the same background strain (C57bl6/J9).
Brain Slice Preparation: Mice were deeply anesthetized with halothane and rapidly decapitated. The brains were extracted rapidly and 300 or 400 μm-thick transverse hippocampal slices were cut with a vibrating microtome into ice-cold oxygenated artificial cerebrospinal fluid (aCSF) with the following composition (in mM): 125 NaCl, 2.5 KCl, 1.25 KH2PO4, 1.2 MgSO4, 2 CaCl2, 10 dextrose, and 25 NaHCO3.
Ca^2+ Imaging: Ca^2+ imaging within individual neurons was performed in brain slice preparations using a custom-made video-rate multiphoton-imaging system based on an upright Olympus BX51 microscope frame. […] Emitted fluorescence light was detected by a wide-field photomultiplier (Electron Tubes) to derive a video signal that was captured and analyzed by Video Savant 5.0 software (IO Industries). […] For clarity, results are expressed as inverse ratios so that increases in [Ca^2+] correspond to increasing ratios. The % change is calculated as [(F/ΔF)−1]×100, where F is the average resting fluorescence at baseline and ΔF is the decrease of fluorescence reflecting Ca release. Differences between drug- and saline-treated groups were assessed using two-way ANOVA and Scheffe post hoc analysis for significance (p<0.05). […]

6-OHDA-lesioned rats = experiment: Behavioral tests in the 6-OHDA-lesioned rat model of Parkinson's disease; assay type: in vivo; conditions: 10 mg/kg IP once daily
Source text: Behavioral tests in the 6-hydroxydopamine (6-OHDA)-lesioned rat model of Parkinson's disease. Male Wistar rats were trained for both the stepping and initiation time (IT) tests 6 days before treatment with 6-OHDA or NaCl (day −6). 5 days before treatment with 6-OHDA, animals from groups 1 to 3 were given vehicles [NaCl or a mixture of DMSO (10%)/tween 80 (10%)/water (80%)] once daily for 16 days. […] All the treatments were given via the IP route, once daily, Sunday excluded. Surgery was performed on DO under ketamine (50 mg/kg) and xylazine (10 mg/kg). Animals received a unilateral injection of 6-OHDA, 6 μl (sigma Aldrich) in the left substantia nigra pars compacta. During surgery, local analgesia was achieved using subcutaneous injections of lidocaine. At the end of surgery, animals were treated with buprenorphine (0.05 mg/kg, S.C.). […] For the IT test, only one of the two forelimbs was left free to move and the time that is necessary to initiate the movement toward the plane surface was recorded, using 180 sec as break-off point. […] In the stepping test, the rat was held by the experimenter and only one of the two forelimbs was left free to move above a plane surface. The other hand fixed the forelimb not to be monitored with one paw touching the table. The animal was then be moved slowly forward by the experimenter. The number of adjusting steps was counted for the right paw. […] In the cylinder test, animals were placed in a Plexiglas cylinder and, immediately, videotaped for 15 min. During this time, the numbers of contacts made on the cylinder wall with both the ipsilateral, the contralateral, and the two paws simultaneously (double contacts) were recorded and then expressed as a percentage of the total number of contacts.

human islet microtissues = experiment: Protection of human pancreatic islets under cytokine stress; assay type: cell-based; conditions: 168 h, compound 5 μM, cytokine cocktail IL1-β, IFN-γ, TNF-α, 7 days, read-out: increase in viability over baseline (total ATP content)
Experimental: Human pancreatic islet microtissues treated with cytokines were used to model the conditions of Type 1 Diabetes in vitro. This study tested the effects of compounds on […] viability in human islets under cytokine stress. The model consisted of human islet microtissues from an HLA-A2 positive donor grown and separated in a 96-well plate (1 microtissue per well). The microtissues were treated for 7 days with a cocktail of cytokines (IL1-β 5 ng/mL, IFN-γ 25 ng/mL, TNF-α 25 ng/mL) and compound (5 μM) or vehicle. There were 6 microtissues treated per compound or vehicle. At day 7, the total ATP content was measured using CellTiter-Glo (Promega).

[3] = test system: HeLa cells overexpressing BI-1; experiment: Effect of a SERCA agonist on [Ca2+]ER (ER cameleon); assay type: cell-based; conditions: 24 hrs treatment, ER cameleon YFP/CFP
Experimental: To directly measure ER Ca^2+ content, a genetically encoded Ca^2+ indicator, ER cameleon, was used. HeLa cells were transfected with ER-cameleon encoding plasmid for 2 days before analysis. Cells were treated with a test compound for 24 hrs and imaged in Ca^2+-free HBSS upon addition of thapsigargin to deplete ER stores. Emission ratio imaging of the ER cameleon was accomplished using a 430/24 excitation filter, 450-nm dichroic mirror, and two emission filters (475/40 for CFP and 535/25 for YFP). The fluorescence ratio of YFP/CFP is a measure of relative ER Ca^2+ levels.

| Structure (SMILES) | total distance in hidden platform test (Morris water maze) [1] | ER Ca^2+ signaling (RyR-Ca2+ response to caffeine) [2] | initiation time (IT test) (6-OHDA-lesioned rats) | number of adjusting steps (stepping test) (6-OHDA-lesioned rats) | number of contacts (cylinder test) (6-OHDA-lesioned rats) | viability at 5 µM (human islet microtissues) [%] | [Ca^2+]ER [3] |
| --- | --- | --- | --- | --- | --- | --- | --- |
| Cc1ccc2cccc(NC(=O)c3ccc(OC(C)C)cc3)c2n1 [Compound A12, 4-Isopropoxy-N-(2-methylquinolin-8-yl)benzamide] | a decrease in total distance | restores ER Ca^2+ signaling | reduced | increased | increased | 20 to 50 | significantly restored |
| Cc1ccc2cccc(NC(=O)c3ccc(N(C)C)cc3)c2n1 [Compound C18, 4-N,N-Dimethylamino-N-(2-methylquinolin-8-yl)benzamide] | – | – | – | – | – | > 50 | – |
